From patent US20060019929A1, “Combination therapies employing platelet aggregation drugs” (priority 2004, published 2006)
“Also recorded” adds a separate entry of the source.

What was measured:
Format in all cases: in vivo
[1] = test system: patients who underwent percutaneous coronary intervention (PCI); assay: 30-day composite and individual clinical event rates after PCI; details: 30 days
Source text: Methods—Study Overview: 60 patients who underwent percutaneous coronary intervention (PCI) at 4 centers were randomized in a 2:1 double-blinded fashion to treatment with P5P or placebo. Inclusion criteria required prior determination for non-urgent PCI of a single-vessel lesion(s) and identification of ≧1 of the following clinical characteristics determining high risk for procedural-related ischemic complications (Califf R M, Abdelmeguid A E, Kuntz R E, Popma J J, Davidson C J, Cohen E A, Kleiman N S, Mahaffey K W, Topol E J, Pepine C J, et al. Myonecrosis after revascularization procedures. J Am Coll Cardiol 1998; 31:241-251; The ESPRIT Investigators. Novel dosing regimen of eptifibatide in planned coronary stent implantation: a randomised, placebo-controlled trial. Lancet 2000; 356:2037-2044): presence of an acute coronary syndrome (chest pain within 48 hours of PCI), recent AMI (≦7 days), diminished epicardial blood flow, angiographic thrombus, ejection fraction ≦30%, or vein graft lesion. […] Compliance and reasons for discontinued treatments were recorded for all patients.
Study end points and definitions: The primary objective of the study was to evaluate the feasibility of treatment with P5P as a cardioprotective agent in high-risk elective PCI. The primary end point of infarct size was evaluated by the trapezoidal rule (Press W H, Teukolsky S A, Vetterling W T, Flannery B P. Numerical Recipes. Cambridge, UK: Cambridge University Press, 1994:127-133) using serial CK-MB enzyme measures performed at baseline and every 6 hours for 24 hours beginning immediately before initiation of PCI. The occurrence of myocardial ischemia within 24 hours after PCI was assessed as a secondary end point using continuous 12-lead electrocardiographic monitoring (Northeast Monitoring, Boston, Mass.). […] Area under the curve ST-segment deviation was measured from the onset of the first to the last contrast injection. […]

[2] = test system: patients who underwent percutaneous coronary intervention (PCI); assay: Periprocedural cardiac markers (serial CK-MB, troponin T) after high-risk elective PCI, P5P vs placebo
Source text: (§1) Methods—Study Overview: 60 patients who underwent percutaneous coronary intervention (PCI) at 4 centers were randomized in a 2:1 double-blinded fashion to treatment with P5P or placebo. Inclusion criteria required prior determination for non-urgent PCI of a single-vessel lesion(s) and identification of ≧1 of the following clinical characteristics determining high risk for procedural-related ischemic complications (Califf R M, Abdelmeguid A E, Kuntz R E, Popma J J, Davidson C J, Cohen E A, Kleiman N S, Mahaffey K W, Topol E J, Pepine C J, et al. Myonecrosis after revascularization procedures. J Am Coll Cardiol 1998; 31:241-251; The ESPRIT Investigators. Novel dosing regimen of eptifibatide in planned coronary stent implantation: a randomised, placebo-controlled trial. Lancet 2000; 356:2037-2044): presence of an acute coronary syndrome (chest pain within 48 hours of PCI), recent AMI (≦7 days), diminished epicardial blood flow, angiographic thrombus, ejection fraction ≦30%, or vein graft lesion. In addition to any general contraindication to the PCI procedure or standard concomitant therapies, major exclusion criteria were creatine kinase (CK-MB) elevation above the upper limit of normal immediately before PCI, electrocardiographic evidence of atrial fibrillation or left bundle branch block, or evidence of any clinically significant abnormal laboratory finding (transaminases, bilirubin, or alkaline phosphatase >1.5 times the upper limit of normal or serum creatinine >1.8 mg/dl). Patients with elevated troponin measurements were permitted in the study provided that the peak troponin value was reported >24 hours before scheduled PCI, with documentation of a decreasing value before revascularization. After providing informed consent, patients randomized to treatment with P5P were administered enteric-coated P5P as a 10 mg/kg oral dose ≧4 hours before PCI followed by 2 daily doses of 5 mg/kg orally for 14 days. Compliance and reasons for discontinued treatments were recorded for all patients.
(§2) Study end points and definitions: The primary objective of the study was to evaluate the feasibility of treatment with P5P as a cardioprotective agent in high-risk elective PCI. The primary end point of infarct size was evaluated by the trapezoidal rule (Press W H, Teukolsky S A, Vetterling W T, Flannery B P. Numerical Recipes. Cambridge, UK: Cambridge University Press, 1994:127-133) using serial CK-MB enzyme measures performed at baseline and every 6 hours for 24 hours beginning immediately before initiation of PCI. The occurrence of myocardial ischemia within 24 hours after PCI was assessed as a secondary end point using continuous 12-lead electrocardiographic monitoring (Northeast Monitoring, Boston, Mass.). Evidence of periprocedural ischemia was defined as ST-segment depression of >100 μV within a 60-minute period of PCI, lasting ≧1 minute and separated from other episodes by ≧1 minute. Area under the curve ST-segment deviation was measured from the onset of the first to the last contrast injection. All cardiac markers and ST-segment monitoring data were analyzed by core laboratories blinded to treatment assignment (University of Maryland School of Medicine, Baltimore, Md.; Duke Ischemia Monitoring Laboratory, Durham, N.C.). […]

[3] = test system: patients who underwent percutaneous coronary intervention (PCI); assay: Clinical safety (bleeding, transfusion, chemistries, coagulation, discontinuation)
Source text: as §1, §2

[4] = test system: patients who underwent percutaneous coronary intervention (PCI); assay: Procedural and angiographic results (investigator-reported)
Source text: as §1
Except for a higher incidence of reduced epicardial flow among control patients, baseline angiographic and procedural characteristics also appeared similar between treatment groups (Table 1). Administration of P5P or placebo occurred an average of 6.1 and 8.4 hours before PCI, respectively. Stent implantation was performed in 100% and 97.3% of the placebo and P5P treatment groups, respectively. Only 1 vein graft intervention was performed using distal embolic protection. Although the right coronary artery was most commonly treated in both groups, fewer patients treated with placebo underwent revascularization of a saphenous vein graft (Table 2). Procedural angiographic complications (e.g., major dissection, abrupt vessel closure) were infrequent (Table 2).

[5] = test system: patients who underwent percutaneous coronary intervention (PCI); assay: 24-h continuous 12-lead electrocardiographic ST monitoring after PCI
Method: Methods—Study Overview: 60 patients who underwent percutaneous coronary intervention (PCI) at 4 centers were randomized in a 2:1 double-blinded fashion to treatment with P5P or placebo. […] Compliance and reasons for discontinued treatments were recorded for all patients.
as §2, with “Evidence of periprocedural ischemia was defined as ST-segment depression of >100 μV within a 60-minute period of PCI, lasting ≧1 minute and separated from other episodes by ≧1 minute.” left out

[6] = test system: patients who underwent percutaneous coronary intervention (PCI); assay: Maximum periprocedural CK-MB in patients with adjunctive platelet aggregation inhibitor (study data of Example 1 re-examined); details: adjunctive ASA 82 or 325 mg, eptifibatide, or clopidogrel 75 or 300 mg

Cc1ncc(COP(=O)(O)O)c(C=O)c1O [P5P, pyridoxal-5-phosphate]
30-day deaths [1]: no deaths
30-day composite adverse event rate (death, nonfatal AMI, new and/or worsening heart failure, or recurrent ischemia) ([1]; p=1.0 vs placebo): 17.9%
30-day nonfatal AMI ([1]; p=1.0 vs placebo): 12.8%
maximum / peak periprocedural CK-MB level versus placebo ([2]; P5P vs placebo): significantly lower; also recorded: significant decrease
Time to peak CK-MB ([2]; median (interquartile range)): 11.0 (0-18.0), 36 h
change in troponin T ([2]; median (interquartile range), baseline to within 24 h after PCI): 0 (0-0.07), 36 ng/ml
Area under the curve CK-MB (periprocedural infarct size) ([2]; median (interquartile range), enteric-coated P5P 10 mg/kg oral ≧4 h before PCI, then 5 mg/kg twice daily 14 days, CK-MB every 6 h for 24 h): 18.6 (10.2-34.5), 35 ng/ml
Peak CK-MB ([2]; median (interquartile range), periprocedural): 1.1 (0.5-2.4), 39 ng/ml
abnormalities of routine chemistries or coagulation studies versus placebo ([3]; at 7 and 30 days): no apparent differences
safety issues related to treatment ([3]; human, in vivo): No safety issues
need for blood product transfusion ([3]; p=0.26 vs placebo): 2.5%
major bleeding ([3]; p=0.27 vs placebo): 2.8%
patients discontinued drug therapy before completion of the prescribed 2 weeks ([3]; p=0.77 vs placebo): 30.8%
TIMI flow final 0/1 ([4]; after PCI, n = 37): 0 number (percent)
TIMI flow final 2 ([4]; after PCI, n = 37): 0 number (percent)
TIMI flow final 3 ([4]; after PCI, n = 37): 37 (100) number (percent)
Diameter stenosis final ([4]; median (interquartile range), after PCI): 0 (0-0) %
Procedural complications: Abrupt closure ([4]; n = 37): 0 number (percent)
Procedural complications: Distal embolization ([4]; n = 37): 0 number (percent)
Procedural complications: Major dissection ([4]; n = 37): 1 (3) number (percent)
Procedural complications: No reflow ([4]; n = 37): 0 number (percent)
Procedural complications: None ([4]; n = 37): 35 (95) number (percent)
Procedural complications: Side branch closure ([4]; n = 37): 1 (3) number (percent)
Procedural complications: Thrombus formation ([4]; n = 37): 0 number (percent)
Area under the curve ST deviation ([5]; median (interquartile range), 24-h continuous ST monitoring): 1349 (951-2.263), 35 μV-min
Any post PCI ischemia ([5]; percent of patients, within 24 h after PCI): 14.7-34%

CC(=O)Oc1ccccc1C(=O)O [ASA + placebo, acetylsalicylic acid]
CK-MB max (mean) [6]: 3.41 ng/mL

COC(=O)[C@H](c1ccccc1Cl)N1CCc2sccc2C1 [Clopidogrel + placebo, clopidogrel]
CK-MB max (mean) [6]: 3.41 ng/mL

eptifibatide [Eptifibatide + placebo]
CK-MB max (mean) [6]: 3.40 ng/mL
